Assay results from patent EP1714639A1, “Cosmetic compositions containing piperazine derivatives” (L'ORÉAL, priority 2005, dated 2006).

What was measured:
[1] = tested on: canaux calciques de type L; test: binding test on L-type calcium channels ([3H](-) D 888 displacement, verapamil site); design: species or system rat; settings: for % inhibition de la liaison: 1 µM in DMSO, [3H](-) D 888 0.5 nM, rat cerebral cortex homogenates, 60 min/22°C
Procedure: On a évalué la capacité des composés des Exemples 1, 4 et 5 (à 1 µM dans le DMSO) à inhiber par compétition la fixation d'[…] de canaux calciques de type L.
Les études sont réalisées à partir d'homogénats de cortex cérébral de rat (membranes isolées présentant à leur surface des canaux calciques de type L) selon la méthode décrite par Reynolds I.J. et al., 1986, J. Pharmacol. Exp. Ther., 237, p.731.
Les conditions expérimentales sont les suivantes :
D888 qui est le [^3H](-) desmethoxyverapamil sert de ligand spécifique radiomarqué et D600 qui est le chlorhydrate de (±)méthoxyvérapamil sert de molécule de référence.
La liaison spécifique d'un ligand (D888 marqué) aux récepteurs (canaux calciques de type L, site vérapamil) est définie comme la différence entre la liaison totale et la liaison non spécifique déterminée en présence d'un excès de ligand froid (non radioactif). Les résultats sont exprimés en pourcentage d'inhibition de la liaison spécifique du témoin en présence du composé testé.

[2] = tested on: cellules musculaires striées humaines; test: nerve-muscle co-culture test (inhibition of muscle fibre contractions); assay type: cell-based; settings: for inhibition at 10 µM / inhibition at 100 µM: 60 s incubation, contractions counted over 30 s, triplicate, read-out: % d'inhibition des contractions
Description: Les composés des Exemples 1 et 2 ont été testés sur un modèle de co-culture nerfs-muscles qui permet de recréer un arc moteur en innervant des cellules musculaires striées humaines avec des explants de moelle épinière et de ganglions rachidiens d'embryons de rat.
Des cellules musculaires humaines, issues de prélèvements de muscles striés de donneur sain, sont ensemencées dans des puits de 1,8 cm^2 de section (boîtes de culture de 24 puits). Après 10 jours de culture, ces cellules forment une monocouche et fusionnent. A ce stade, des explants de moelle épinière d'embryons de rat de 13 jours contenant les ganglions rachidiens sont déposées sur la culture.
La croissance des neurites est visible en dehors de l'explant de moelle épinière après un jour de culture. Les premières contractions des fibres musculaires sont observées après 5 à 6 jours de co-culture et après 3 semaines, toutes les fibres musculaires au voisinage des explants se contractent.
Le co-cultures sont utilisées après 21 jours, quand les fibres musculaires sont striées et possèdent des jonctions neuromusculaires différenciées matures.
Une fibre musculaire ayant des contractions régulières (au moins 60 contractions par minute) est alors sélectionnée dans trois puits de culture différents et le nombre de contractions est comptabilisé sur 30 secondes. Les composés testés, dilués dans le DMSO, sont ensuite incubés pendant 60 secondes dans ces puits, à la concentration de 10 µM pour le composé de l'Exemple 1 et de 10 et 100 µM pour le composé de l'Exemple 2. A la fin de l'incubation, le nombre de contractions est à nouveau comptabilisé sur 30 secondes. Le test est réalisé en triplicata.

[3] = anti-wrinkle activity in vivo

| Compound | % inhibition de la liaison [1] [%] | inhibition at 10 µM [2] [%] | inhibition at 100 µM [2] [%] | also measured |
| --- | --- | --- | --- | --- |
| C(=Cc1ccccc1)CN1CCN(CCCc2ccccc2)CC1 [compound 1, 1-(3-phenyl-2-propenyl)-4-(3-phenylpropyl)-piperazine] | 30 | 65 | 100 | – |
| c1ccc(CCCN2CCN(CCc3ccccc3)CC2)cc1 [compound 2, 1-(2-phenylethyl)-4-(3-phenylpropyl)-piperazine] | – | 50 | 100 | inhibition de la liaison spécifique du témoin aux canaux calciques ([1]; similar test, concentration 50 µM): 50% |
| OCCCN1CCN(CCCc2ccccc2)CC1 [compound 4, 1-(3-hydroxpropyl) 4-(3-phenylpropyl)-piperazine] | 22 | – | – | – |
| CCN1CCN(CCCc2ccccc2)CC1 [compound 5, 1-ethyl 4-(3-phenylpropyl)-piperazine] | 16 | – | – | – |
| CN1C(=O)CN=C(c2ccccc2)c2cc(Cl)ccc21 [diazépam, reference compound] | – | – | – | activité anti-rides [3]: démontrée in vivo; contractions des fibres musculaires ([2]; earlier finding of the applicant in this model): inhibait les contractions des fibres musculaires |
